Structures can show the parent of a compound that is named as a salt.
Key:
Type in all cases: biochemical
[1] = target: T1, recombinant human MAO-B (monoamine oxidase-B) (Homo sapiens, UniProt P27338); assay: Activity on recombinant human MAO-B, method similar to the VAP-1 assay; conditions: substrate 1 mM benzylamine; read-out: Inhibitory Activity (IC50, nM) MAO-B
T1 construct: purchased Sigma-Aldrich
T1 sequence (P27338 1-520): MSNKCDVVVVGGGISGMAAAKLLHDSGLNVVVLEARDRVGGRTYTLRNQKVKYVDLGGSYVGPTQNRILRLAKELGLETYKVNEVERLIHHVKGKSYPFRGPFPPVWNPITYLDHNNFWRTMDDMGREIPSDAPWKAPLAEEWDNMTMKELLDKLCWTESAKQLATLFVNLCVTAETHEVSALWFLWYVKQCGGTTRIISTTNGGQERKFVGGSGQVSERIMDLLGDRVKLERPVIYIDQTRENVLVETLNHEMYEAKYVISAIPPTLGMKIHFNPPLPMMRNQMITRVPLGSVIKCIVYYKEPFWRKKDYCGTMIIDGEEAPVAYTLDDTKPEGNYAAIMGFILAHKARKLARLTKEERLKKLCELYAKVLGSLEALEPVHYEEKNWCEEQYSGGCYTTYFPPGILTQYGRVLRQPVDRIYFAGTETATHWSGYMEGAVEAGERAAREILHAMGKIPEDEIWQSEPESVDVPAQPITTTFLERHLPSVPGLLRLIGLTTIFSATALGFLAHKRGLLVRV
Experimental: The compounds according to the present technology were evaluated in terms of activity on recombinant human VAP-1 (R&D systems) by measuring the level of hydrogen peroxide in horseradish peroxidase (HRP)-coupled reaction using Amplex Red Hydrogen Peroxide Assay Kit (Molecular Probes, Invitrogen, USA). The experiment was carried out at room temperature using benzylamine as a substrate. In the HRP-coupled reaction, hydrogen peroxide oxidation of 10-acetyl-3,7-dihydroxyphenoxazine (Amplex Red reagent) produces resorufin, which is a highly fluorescent compound. Briefly, the test compound was dissolved in dimethyl sulfoxide (DMSO) at a concentration of 20 mM. The dose-response assessment was made by 1:3 serial dilution in DMSO, thereby creating an 8 point curve. The concentration of the upper part was controlled according to the efficacy of the compounds, followed by dilution with a reaction buffer solution to obtain a final DMSO concentration less than 1%. To each well of a 96 black well plate, human VAP-1 purified in 50 mM sodium phosphate buffer solution (pH7.4) was added. The test compounds dissolved in DMSO were incubated with the human VAP-1 enzymes at 37° C. for 30 minutes. After 30-minute incubation, each well is added with a reaction mixture containing 200 uM Amplex Red reagent prepared from 50 mM sodium phosphate buffer solution (pH 7.4), 1 mM benzylamine, and 1 U/mL HRP. Fluorescence intensity was measured at several time points during 1-2 hours using a microplate reader (Flexstation3, Molecular Devices) under the wavelength condition exciting at 544 nm and reading the emission at 590 nm. The inhibitory effect of the compounds was measured as a decrease (%) in the signal rate as compared to the control group without any inhibitor (only diluted DMSO). Data was fixed to a logistic model with four variables and IC50 value was calculated using GraphPad Prism program.
In addition, the compounds according to the present technology were evaluated in terms of activity on a recombinant human MAO-A (monoamine oxidase-A, Sigma-Aldrich) and a recombinant human MAO-B (monoamine oxidase-B, Sigma-Aldrich) by using as substrates, 0.5 mM tyramine and 1 mM benzylamine, respectively, with a method similar to the activity evaluation method for recombinant human VAP-1. The compounds according to the present technology were also evaluated in terms of activity on a recombinant human DAO (diamine oxidase, R&D systems) by using as a substrate 1 mM putrescine with a method similar to the activity evaluation method for recombinant human VAP-1.

[2] = target: T2, recombinant human VAP-1 (Homo sapiens, UniProt Q16853); assay: Activity on recombinant human VAP-1, HRP-coupled Amplex Red hydrogen peroxide assay; conditions: substrate 1 mM benzylamine; compound incubated with enzyme at 37° C. for 30 minutes; pH 7.4; read-out: Inhibitory Activity (IC50, nM) human VAP-1
T2 construct: purchased R&D systems
T2 sequence (Q16853 1-763): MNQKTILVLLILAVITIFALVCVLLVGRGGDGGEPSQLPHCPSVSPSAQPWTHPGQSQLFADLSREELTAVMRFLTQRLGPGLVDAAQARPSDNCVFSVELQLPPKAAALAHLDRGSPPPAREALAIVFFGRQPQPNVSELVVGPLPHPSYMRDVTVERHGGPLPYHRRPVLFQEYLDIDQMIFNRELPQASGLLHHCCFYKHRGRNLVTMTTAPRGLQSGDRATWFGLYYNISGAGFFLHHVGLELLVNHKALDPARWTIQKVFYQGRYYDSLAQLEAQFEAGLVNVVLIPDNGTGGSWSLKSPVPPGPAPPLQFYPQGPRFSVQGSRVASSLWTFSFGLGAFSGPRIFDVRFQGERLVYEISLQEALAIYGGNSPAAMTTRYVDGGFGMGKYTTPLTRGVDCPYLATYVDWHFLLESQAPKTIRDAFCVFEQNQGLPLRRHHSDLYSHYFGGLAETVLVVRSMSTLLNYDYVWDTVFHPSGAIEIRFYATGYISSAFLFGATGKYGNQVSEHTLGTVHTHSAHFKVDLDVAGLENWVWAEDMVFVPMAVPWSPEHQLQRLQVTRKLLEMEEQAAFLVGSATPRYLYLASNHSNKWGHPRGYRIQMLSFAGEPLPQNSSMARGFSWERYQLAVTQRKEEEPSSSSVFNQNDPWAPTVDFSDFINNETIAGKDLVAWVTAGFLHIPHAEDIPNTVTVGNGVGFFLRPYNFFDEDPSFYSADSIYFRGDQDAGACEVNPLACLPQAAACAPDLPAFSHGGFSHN
Method in brief: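 H2O2 generation from 1 mM benzylamine was coupled via 1 U/mL HRP to 200 uM Amplex Red; inhibitors, serially diluted 1:3 over 8 points with under 1% final DMSO, had been preincubated 30 min at 37 °C. IC50 from percentage drop in rate.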

[3] = target: T3, recombinant human MAO-A (monoamine oxidase-A) (Homo sapiens, UniProt P21397); assay: Activity on recombinant human MAO-A, method similar to the VAP-1 assay; conditions: substrate 0.5 mM tyramine; read-out: Inhibitory Activity (IC50, nM) MAO-A
T3 construct: purchased Sigma-Aldrich
T3 sequence (P21397 1-527): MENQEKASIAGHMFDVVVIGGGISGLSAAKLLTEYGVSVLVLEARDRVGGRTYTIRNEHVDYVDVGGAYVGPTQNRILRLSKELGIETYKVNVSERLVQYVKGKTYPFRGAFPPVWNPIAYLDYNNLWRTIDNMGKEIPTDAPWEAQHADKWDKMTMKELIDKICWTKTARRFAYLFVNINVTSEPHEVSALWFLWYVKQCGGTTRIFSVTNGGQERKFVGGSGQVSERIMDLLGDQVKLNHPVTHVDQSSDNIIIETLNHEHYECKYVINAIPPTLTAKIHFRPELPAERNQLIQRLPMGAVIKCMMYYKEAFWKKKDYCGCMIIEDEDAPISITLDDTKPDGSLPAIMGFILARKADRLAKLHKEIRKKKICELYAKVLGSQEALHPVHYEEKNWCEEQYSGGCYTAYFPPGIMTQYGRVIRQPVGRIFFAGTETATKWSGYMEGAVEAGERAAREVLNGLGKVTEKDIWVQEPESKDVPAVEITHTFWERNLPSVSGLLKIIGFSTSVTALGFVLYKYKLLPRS
Method in brief: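 First, serially diluted compounds were incubated with recombinant enzyme in 50 mM sodium phosphate, pH 7.4, for 30 min at 37° C. Next, Amplex Red (200 uM), HRP (1 U/mL) and tyramine (0.5 mM, MAO-A) or benzylamine (1 mM, MAO-B) were added. Then fluorescence was monitored over 1-2 h and IC50 fitted.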

[4] = target: T4, recombinant human DAO (diamine oxidase) (Homo sapiens, UniProt P19801); assay: Activity on recombinant human DAO, method similar to the VAP-1 assay; conditions: substrate 1 mM putrescine; read-out: Inhibitory Activity (IC50, nM) DAO
T4 construct: purchased R&D systems
T4 sequence (P19801 20-751): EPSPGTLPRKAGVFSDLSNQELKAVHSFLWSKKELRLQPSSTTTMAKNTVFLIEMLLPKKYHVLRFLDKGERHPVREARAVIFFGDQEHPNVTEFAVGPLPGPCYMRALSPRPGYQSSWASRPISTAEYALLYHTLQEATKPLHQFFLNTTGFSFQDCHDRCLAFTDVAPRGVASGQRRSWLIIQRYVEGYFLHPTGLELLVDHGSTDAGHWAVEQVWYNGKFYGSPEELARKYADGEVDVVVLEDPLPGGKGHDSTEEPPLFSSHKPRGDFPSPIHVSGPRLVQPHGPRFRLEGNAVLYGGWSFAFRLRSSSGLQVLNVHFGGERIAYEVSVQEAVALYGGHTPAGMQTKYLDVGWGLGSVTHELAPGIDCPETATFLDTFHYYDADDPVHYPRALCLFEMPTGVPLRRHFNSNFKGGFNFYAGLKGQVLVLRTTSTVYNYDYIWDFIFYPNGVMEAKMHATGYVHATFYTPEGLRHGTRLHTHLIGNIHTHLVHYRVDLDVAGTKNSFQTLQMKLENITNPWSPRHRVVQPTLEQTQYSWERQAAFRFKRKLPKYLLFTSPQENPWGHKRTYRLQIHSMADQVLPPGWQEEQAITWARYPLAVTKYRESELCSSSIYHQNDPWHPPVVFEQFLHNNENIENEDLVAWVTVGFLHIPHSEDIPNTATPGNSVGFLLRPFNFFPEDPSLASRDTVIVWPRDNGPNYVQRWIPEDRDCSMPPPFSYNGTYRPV
Method in brief: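 Inhibition of recombinant human diamine oxidase (DAO, R&D systems) was assessed by the same approach as the VAP-1 assay, using 1 mM putrescine as substrate. Hydrogen peroxide formed was detected through an HRP-coupled Amplex Red reaction yielding fluorescent resorufin, read at 544 nm excitation and 590 nm emission. IC50 values came from four-parameter logistic fitting in GraphPad Prism.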

| IC50 [1] [nM] | IC50 [2] [nM] | IC50 [3] [nM] | IC50 [4] [nM] | Structure (SMILES) |
| --- | --- | --- | --- | --- |
| 220 | 2.1 | 13000 | 350 | COc1cc(COc2c(C)cc(-c3ccc(Cn4cnn(C/C(=C/F)CN)c4=O)s3)cc2C)cc(OC)c1 [Example 18, 2-[(2E)-2-(aminomethyl)-3-fluoroprop-2-en-1-yl]-4-[(5-4-[(3,5-dimethoxybenzyl)oxy]-3,5-dimethylphenylthiophen-2-yl)methyl]-2,4-dihydro-3H-1,2,4-triazol-3-one hydrochloride] |
| 1100 | 4.6 | > 100000 | 1800 | COCCOc1ccc(-c2ccc(Cn3cnn(C/C(=C/F)CN)c3=O)s2)cc1 [Example 19, 2-[(2E)-2-(aminomethyl)-3-fluoroprop-2-en-1-yl]-4-(5-[4-(2-methoxyethoxy)phenyl]thiophen-2-ylmethyl)-2,4-dihydro-3H-1,2,4-triazol-3-one hydrochloride] |
| 730 | 5 | 6600 | 2700 | NC/C(=C\F)Cn1ncn(Cc2ccc(-c3ccc(N4CCCC4)cc3)s2)c1=O [Example 20, 2-[(2E)-2-(aminomethyl)-3-fluoroprop-2-en-1-yl]-4-(5-[4-(pyrrolidin-1-yl)phenyl]thiophen-2-ylmethyl)-2,4-dihydro-3H-1,2,4-triazol-3-one hydrochloride] |
| 3000 | 2 | > 100000 | 1300 | NC/C(=C\F)Cn1ncn(Cc2ccc(-c3ccc(N4CCCC4=O)cc3)s2)c1=O [Example 21, 2-[(2E)-2-(aminomethyl)-3-fluoroprop-2-en-1-yl]-4-(5-[4-(2-oxopyrrolidin-1-yl)phenyl]thiophen-2-ylmethyl)-2,4-dihydro-3H-1,2,4-triazol-3-one hydrochloride] |
| 2600 | 6.4 | > 100000 | 2400 | NC/C(=C\F)Cn1ncn(Cc2ccc(-c3ccc(N4CCNCC4)cc3)s2)c1=O [Example 22, 2-[(2E)-2-(aminomethyl)-3-fluoroprop-2-en-1-yl]-4-(5-[4-(piperazin-1-yl)phenyl]thiophen-2-ylmethyl)-2,4-dihydro-3H-1,2,4-triazol-3-one hydrochloride] |
| 300 | 2.5 | > 100000 | 3200 | NC/C(=C\F)Cn1ncn(Cc2ccc(-c3cccc(N4CCNCC4)c3)s2)c1=O [Example 23, 2-[(2E)-2-(aminomethyl)-3-fluoroprop-2-en-1-yl]-4-(5-[3-(piperazin-1-yl)phenyl]thiophen-2-ylmethyl)-2,4-dihydro-3H-1,2,4-triazol-3-one hydrochloride] |
| > 10000 | 1.4 | 21000 | 670 | CC(=O)N1CCN(c2ccc(-c3ccc(Cn4cnn(C/C(=C/F)CN)c4=O)s3)cc2)CC1 [Example 24, 4-(5-[4-(4-acetylpiperazin-1-yl)phenyl]thiophen-2-ylmethyl)-2-[(2E)-2-(aminomethyl)-3-fluoroprop-2-en-1-yl]-2,4-dihydro-3H-1,2,4-triazol-3-one hydrochloride] |
| 1300 | 3.1 | > 100000 | 690 | NC/C(=C\F)Cn1ncn(Cc2ccc(-c3ccc(C4CCOCC4)cc3)s2)c1=O [Example 25, 2-[(2E)-2-(aminomethyl)-3-fluoroprop-2-en-1-yl]-4-(5-[4-(tetrahydro-2H-pyran-4-yl)phenyl]thiophen-2-ylmethyl)-2,4-dihydro-3H-1,2,4-triazol-3-one hydrochloride] |

— patent publication US11780830B2, “Triazolone derivatives or salts thereof and pharmaceutical compositions comprising the same” (YUHAN CORPORATION, priority 2018, dated 2023)
